Source: patent US8980544B2, “Boronic and borinic acid compounds as inhibitors of sulfenic acid-containing proteins” (The Penn State Research Foundation, priority 2012, dated 2015)
Like-named read-outs stand apart in the source and are kept apart here. Marks after values point to notes of the source that are not given here.

What was measured:
[1] = Spectrophotometric (UV/vis) titration of boronic acids 2 against the sodium salt of sulfenic acid 1, incl. reversibility with NaOH; settings: for Kd: read-out: Averaged Kd from spectrophotometric titrations
Protocol: The titration studies were performed using a Cary 100 Bio UV/vis spectrophotometer thermostated at 22° C. […] Each titration study was completed within 10 minutes.
The initial solution contained 0.8 mM of the sodium salt of 1.

[2] = pKa by half-neutralization technique in acetonitrile-water; assay type: physicochemical
Protocol: The final volume of the solutions is 5 mL. The averaged pKa values from duplicate measurements are reported, and used for analysis.
It should be noted that the pKa values determined this way are not corrected for the change in the autoprotolysis constant of the solution due to mix solvent system.

[3] = molecular target: T1, iron-based NHase from Rhodococcus erythropolis AJ270 (Rhodococcus erythropolis, UniProt P13448); assay: Enzymatic inhibition of nitrile hydratase (NCTB conversion, 412 nm); assay type: biochemical; settings: for Average rate (abs/min): 1 mM NCTB, 23° C.; for Rate relative to NHase: NHase without additive = 100%; for Activity: nmol thiolate product per minute per mg freeze-dried NHase powder
T1 construct: purchased Prozomix Limited
T1 sequence (P13448 1-207): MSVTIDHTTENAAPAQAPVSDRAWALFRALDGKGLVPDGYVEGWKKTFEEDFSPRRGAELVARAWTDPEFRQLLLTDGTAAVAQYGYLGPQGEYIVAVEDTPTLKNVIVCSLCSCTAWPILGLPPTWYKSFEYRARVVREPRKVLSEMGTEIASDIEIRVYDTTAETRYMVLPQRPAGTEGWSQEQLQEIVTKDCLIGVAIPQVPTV
T1 sequence (P13449 1-212 partner): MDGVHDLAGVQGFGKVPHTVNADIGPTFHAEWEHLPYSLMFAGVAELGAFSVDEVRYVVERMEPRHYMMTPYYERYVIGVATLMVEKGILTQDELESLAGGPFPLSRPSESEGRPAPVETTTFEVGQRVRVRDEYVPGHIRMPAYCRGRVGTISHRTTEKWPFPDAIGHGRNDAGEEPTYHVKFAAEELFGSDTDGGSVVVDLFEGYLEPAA
Protocol: Here, the catalytic efficiency of the iron-based NHase from Rhodococcus erythropolis AJ270 (purchased from Prozomix Limited, Station court, Haltwhistle, Northumberland, NE49 9HN, UK; see, proxomix.com) was assayed in the presence of a known sulfenic acid trap (dimedone) and four boronic acid derivatives. The chosen assay [Sari et al., J. Inorg. Biochem. 2007 101:614-622] was the conversion of 2-nitro-5-thiocyanatobenzoic acid (NCTB) into formamide and 5-mercapto-2-nitrobenzoic acid.
The freeze-dried powder from Prozomix was shipped at room temperature and stored at −20° C. upon arrival. The enzyme was reconstituted at 20 mg/mL in 50 mM phosphate buffer (pH 7.0) with 40 mM butyric acid. These were similar conditions to those described in the Prozomix protocol, the main difference being the use of phosphate buffer instead of Tris buffer; by itself, NHase prepared in Tris had the same reactivity as samples prepared in phosphate buffer. The solution was exposed to 400 W white light for 25 minutes on ice to permit for photo-reactivation of the enzyme.
The kinetic studies were conducted by diluting the stock solution of NHase into de-ionized distilled water (ddH2O) to get at about 0.33 mg/mL of freeze-dried NHase powder provided by Prozomix (used without further manipulation) in solution. Appropriate amounts of PBA (phenyl boronic acid; 2 g), BOXY ((2-hydroxylmethyl)-benzeneboronic acid hemiester; 2A), 3BrB (3-bromobenzeneboronic acid; 2d), or dimedone were added to the mixtures so that the final concentrations of the boronic acids/dimedone were 0, 0.5, 1.0, 2.0, or 2.5 mM.
After permitting the newly composed mixtures to sit at room temperature (at about 23° C.) for five minutes, NCTB was added so that the final NCTB concentration equalled 1 mM. The final volume of the mixtures was 1 mL in UV-cells with 1 cm path length. The final concentration of the phosphate buffer was 3.6 mM. The progress of the reaction (release of the thiolate product at 412 nm; extinction coefficient at 412 nm=13600/M/cm) [Sari et al., J. Inorg. […] The rates of the reaction were determined from fitting the first 4 minutes of the absorbance vs. time traces to a standard linear equation. The activity values were calculated as nmol of thiolate product generated per minute per mg of freeze-dried NHase powder. The reaction rates are reported below in Table 4, below, as averages of duplicate kinetic studies.

[4] = literature value; cited from earlier work
[5] = 15% (v/v) acetonitrile-water mixture, 15% (v/v) acetonitrile-water, half-neutralization, averaged duplicates, Table 1, read-out: pKa in 15% acetonitrile-water at 22° C.
[6] = 15% acetonitrile-water mixture, 15% acetonitrile-water, as listed in Table 2, read-out: pKa in 15% acetonitrile-water
[7] = 70% (v/v) acetonitrile-water mixture, read-out: Averaged pKa value from half neutralization method in 70% (v/v) acetonitrile-water
[8] = complex 1:2, 70% (v/v) acetonitrile-water, 22° C.
[9] = complex 1:2, 15% (v/v) acetonitrile-water

Compound	pKa [2, 5]	pKa [2, 6]	Average rate (abs/min) ([3]; [B]/[Dimedone] = 0.5 mM)	Rate relative to NHase ([3]; [B]/[Dimedone] = 0.5 mM) [%]	Activity ([3]; [B]/[Dimedone] = 0.5 mM) [nmol/min/mg]	Average rate (abs/min) ([3]; [B]/[Dimedone] = 1.0 mM)	Rate relative to NHase ([3]; [B]/[Dimedone] = 1.0 mM) [%]	Activity ([3]; [B]/[Dimedone] = 1.0 mM) [nmol/min/mg]	Average rate (abs/min) ([3]; [B]/[Dimedone] = 2.0 mM)	Rate relative to NHase ([3]; [B]/[Dimedone] = 2.0 mM)	Activity ([3]; [B]/[Dimedone] = 2.0 mM) [nmol/min/mg]	Average rate (abs/min) ([3]; [B]/[Dimedone] = 2.5 mM)	Rate relative to NHase ([3]; [B]/[Dimedone] = 2.5 mM) [%]	Activity ([3]; [B]/[Dimedone] = 2.5 mM) [nmol/min/mg]	further results
OB1OCc2ccccc21 [Compound 2A, 2-(hydroxymethyl)benzeneboronic acid hemiester]	7.8	7.8	0.0039 ± 0.0002	87	0.870	0.0034 ± 0.0002	74	0.826	0.00266 ± 0.00008	61%	0.592	0.00205 ± 0.00009	45	0.502	Averaged -log (Kd) in 15% acetonitrile-water at 22° C. [1]: 3.8 ± 0.1; Averaged -log (Kd) in 70% acetonitrile-water at 22° C. [1]: 3.90 ± 0.02; Kd [1]: 158 µM; pKa [2, 7]: 10.2; Effectiveness of NHase inhibition among the boronic acids examined ([3]; comparison of PBA, BOXY, 3BrB, 0.5-2.5 mM): most effective
CC1(C)CC(=O)CC(=O)C1 [Dimedone, 5,5-dimethyl-1,3-cyclohexanedione, reference compound]	–	–	0.00274 ± 0.00006	61	0.611	0.0017 ± 0.0004	37	0.406	0	0%***	0	0	0	0	–
OB(O)c1cccc(Br)c1 [Compound 2d, 3-Bromobenzene-boronic acid]	8.55	8.48	0.0039 ± 0.0004	87	0.878	0.00369 ± 0.00009	81	0.903	0.00348 ± 0.0004	79%	0.775	0.00319 ± 0.0007	69	0.782	Averaged -log (Kd) in 70% acetonitrile-water at 22° C. [1, 8]: 4.0 ± 0.1; Kd [1, 9]: 158 µM
OB(O)c1ccccc1 [Compound 2g, phenylboronic acid]	9.5 ± 0.06	9.38	0.0043 ± 0.0004	96	0.968	0.0041 ± 0.0002	91	1.006	0.00382 ± 0.00004	87%	0.851	0.0038 ± 0.0001	83	0.931	Averaged -log (Kd) in 70% acetonitrile-water at 22° C. [1, 8]: 3.96 ± 0.04; Kd [1, 9]: 200 µM
COc1ccc(B(O)O)cc1 [Compound 2h, 4-methoxybenzeneboronic acid]	10.13 ± 0.02	–	–	–	–	–	–	–	–	–	–	–	–	–	–

The next lines start with results.

pKa [2, 5]	Compound	pKa [2, 6]	Average rate (abs/min) ([3]; [B]/[Dimedone] = 0.5 mM)	Rate relative to NHase ([3]; [B]/[Dimedone] = 0.5 mM) [%]	Activity ([3]; [B]/[Dimedone] = 0.5 mM) [nmol/min/mg]	Average rate (abs/min) ([3]; [B]/[Dimedone] = 1.0 mM)	Rate relative to NHase ([3]; [B]/[Dimedone] = 1.0 mM) [%]	Activity ([3]; [B]/[Dimedone] = 1.0 mM) [nmol/min/mg]	Average rate (abs/min) ([3]; [B]/[Dimedone] = 2.0 mM)	Rate relative to NHase ([3]; [B]/[Dimedone] = 2.0 mM)	Activity ([3]; [B]/[Dimedone] = 2.0 mM) [nmol/min/mg]	Average rate (abs/min) ([3]; [B]/[Dimedone] = 2.5 mM)	Rate relative to NHase ([3]; [B]/[Dimedone] = 2.5 mM) [%]	Activity ([3]; [B]/[Dimedone] = 2.5 mM) [nmol/min/mg]	further results
9.1 ± 0.1	OB(O)c1ccc(Br)cc1 [Compound 2e, 4-bromo-benzeneboronic acid]	–	–	–	–	–	–	–	–	–	–	–	–	–	–
7.39 ± 0.05	O=[N+]([O-])c1ccc(B(O)O)cc1 [Compound 2b, 4-nitrobenzeneboronic acid]	–	–	–	–	–	–	–	–	–	–	–	–	–	–
9.4 ± 0.02	OB(O)c1ccc(F)cc1 [Compound 2f, 4-fluorobenzene-boronic acid]	–	–	–	–	–	–	–	–	–	–	–	–	–	–
7.61 ± 0.02	O=C1c2ccccc2C(=O)c2c(SO)cccc21 [Compound 1, anthraquinone-1-sulfenic acid, reference compound]	–	–	–	–	–	–	–	–	–	–	–	–	–	pKa value reported in Kice et al., J. Org. Chem. 1989 [4]: 7.51; pKa [2, 7]: 8.6 ± 0.1
